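Tested at 5 concentrations; 48 h exposure; 96-well plates; endpoints linearly interpolated, else capped at highest concentration. GI50 is the concentration that inhibits growth by half.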 The source made the active and inactive calls. Cut-off read from the data, not from the text of the source: active = GI50 up to about 1.1 µM and inactive = higher.
How the values were obtained:
Test in all cases: inhibition of tumour cell growth, NCI panel, 48 h
[1] = tested on: SF-295
[2] = tested on: HCT-15
[3] = tested on: DMS-114
[4] = tested on: UACC-257
[5] = tested on: COLO 205
[6] = tested on: CAKI-1
[7] = tested on: NCI-H522
[8] = tested on: A549
[9] = tested on: M19-MEL
[10] = tested on: NCI-H460
[11] = tested on: SNB-75
[12] = tested on: 786-0
[13] = tested on: Malme-3M
[14] = tested on: NCI-H23
[15] = tested on: SR
[16] = tested on: OVCAR-8
[17] = tested on: U-251
[18] = tested on: SK-MEL-5
[19] = tested on: EKVX
[20] = tested on: SK-MEL-28
[21] = tested on: SN12C
[22] = tested on: SW-620
[23] = tested on: DLD-1
[24] = tested on: SNB-19
[25] = tested on: UO-31
[26] = tested on: DMS-273
[27] = tested on: SF-539
[28] = tested on: HOP-18
[29] = tested on: OVCAR-3
[30] = tested on: HOP-92
[31] = tested on: HCT-116
[32] = tested on: LXFL 529
[33] = tested on: KM-20L2
[34] = tested on: M14
[35] = tested on: KM12
[36] = tested on: A498
[37] = tested on: HOP-62
[38] = tested on: IGROV-1
[39] = tested on: OVCAR-5
[40] = tested on: ACHN
[41] = tested on: OVCAR-4
[42] = tested on: HT-29
[43] = tested on: SK-OV-3
[44] = tested on: SK-MEL-2
[45] = tested on: RPMI-8226
[46] = tested on: K562
[47] = tested on: SNB-78
[48] = tested on: NCI-H226
[49] = tested on: HL-60
[50] = tested on: LOX IMVI
[51] = tested on: SF-268
[52] = tested on: XF498
[53] = tested on: RXF 393
[54] = tested on: UACC-62
[55] = tested on: HCC 2998
[56] = tested on: TK-10
[57] = tested on: CCRF-CEM
[58] = tested on: MOLT-4

For `COc1ccc2c(c1)[n+]([O-])c(-c1ccc(C)cc1)c(N)[n+]2[O-]`, the GI50 [1] was > 100 µM (inactive), the GI50 [2] was 45.8 µM and the GI50 [3] was 24.9 µM (inactive). For the same compound, the GI50 [4] was 23.6 µM (inactive), the GI50 [5] was 20.2 µM (inactive) and the GI50 [6] was 49.2 µM (inactive). The GI50 [7] was 16.3 µM (inactive), the GI50 [8] was 55.3 µM (inactive) and the GI50 [9] was 51.1 µM (inactive). The GI50 [10] was 38.3 µM (inactive), the GI50 [11] was 45.1 µM (inactive) and the GI50 [12] was 70.8 µM (inactive). For the same compound, the GI50 [13] was 76.2 µM (inactive), the GI50 [14] was 20.9 µM (inactive) and the GI50 [15] was > 100 µM (inactive). For the same compound, the GI50 [16] was 66.2 µM (inactive), the GI50 [17] was 54.7 µM (inactive) and the GI50 [18] was 35.8 µM (inactive). The GI50 [19] was 67.8 µM (inactive), the GI50 [20] was 89.5 µM (inactive) and the GI50 [21] was > 100 µM (inactive). The GI50 [22] was 38.4 µM (inactive), the GI50 [23] was > 100 µM (inactive) and the GI50 [24] was > 100 µM (inactive). For the same compound, the GI50 [25] was 55.1 µM (inactive), the GI50 [26] was 37.7 µM (inactive) and the GI50 [27] was 86.1 µM (inactive). For the same compound, the GI50 [28] was > 100 µM (inactive), the GI50 [29] was 31 µM (inactive) and the GI50 [30] was > 100 µM (inactive). The GI50 [31] was > 100 µM (inactive), the GI50 [32] was 59.6 µM (inactive) and the GI50 [33] was 36.1 µM (inactive). The GI50 [34] was 52.5 µM (inactive), the GI50 [35] was 44.8 µM (inactive) and the GI50 [36] was > 100 µM (inactive). For the same compound, the GI50 [37] was > 100 µM (inactive), the GI50 [38] was 43.3 µM (inactive) and the GI50 [39] was 66.5 µM (inactive). For the same compound, the GI50 [40] was 57.4 µM (inactive), the GI50 [41] was 88.7 µM (inactive) and the GI50 [42] was 52.5 µM (inactive). For the same compound, the GI50 [43] was > 100 µM (inactive), the GI50 [44] was 40.6 µM (inactive) and the GI50 [45] was 75.5 µM (inactive). The GI50 [46] was 67.1 µM (inactive), the GI50 [47] was 70.5 µM (inactive) and the GI50 [48] was > 100 µM (inactive). For the same compound, the GI50 [49] was 43.9 µM (inactive).
With `CCC(=C(C#N)C#N)c1cc(OC)c(OC)c(OC)c1` the GI50 [2] was > 100 µM, the GI50 [3] was > 100 µM (inactive) and the GI50 [5] was > 100 µM (inactive). The GI50 [6] was > 100 µM (inactive), the GI50 [7] was > 100 µM (inactive) and the GI50 [50] was > 100 µM (inactive). The GI50 [8] was > 100 µM (inactive), the GI50 [9] was > 100 µM (inactive) and the GI50 [10] was > 100 µM (inactive). The GI50 [13] was > 100 µM (inactive), the GI50 [14] was > 100 µM (inactive) and the GI50 [15] was > 100 µM (inactive). The GI50 [16] was > 100 µM (inactive), the GI50 [17] was > 100 µM (inactive) and the GI50 [18] was > 100 µM (inactive). For the same compound, the GI50 [19] was > 100 µM (inactive), the GI50 [20] was > 100 µM (inactive) and the GI50 [51] was > 100 µM (inactive). For the same compound, the GI50 [21] was > 100 µM (inactive), the GI50 [22] was > 100 µM (inactive) and the GI50 [52] was > 100 µM (inactive). The GI50 [23] was > 100 µM (inactive), the GI50 [24] was > 100 µM (inactive) and the GI50 [25] was > 100 µM (inactive). For the same compound, the GI50 [53] was > 100 µM (inactive), the GI50 [26] was > 100 µM (inactive) and the GI50 [27] was > 100 µM (inactive). The GI50 [28] was > 100 µM (inactive), the GI50 [29] was > 100 µM (inactive) and the GI50 [30] was 95.1 µM (inactive). For the same compound, the GI50 [31] was > 100 µM (inactive), the GI50 [32] was > 100 µM (inactive) and the GI50 [33] was > 100 µM (inactive). For the same compound, the GI50 [34] was > 100 µM (inactive), the GI50 [35] was > 100 µM (inactive) and the GI50 [37] was > 100 µM (inactive). For the same compound, the GI50 [38] was > 100 µM (inactive), the GI50 [54] was > 100 µM (inactive) and the GI50 [55] was > 100 µM (inactive). For the same compound, the GI50 [39] was > 100 µM (inactive), the GI50 [40] was > 100 µM (inactive) and the GI50 [56] was > 100 µM (inactive). For the same compound, the GI50 [41] was > 100 µM (inactive), the GI50 [42] was > 100 µM (inactive) and the GI50 [43] was > 100 µM (inactive). The GI50 [44] was > 100 µM (inactive), the GI50 [45] was 15.6 µM (inactive) and the GI50 [46] was > 100 µM (inactive). The GI50 [57] was > 100 µM (inactive), the GI50 [48] was > 100 µM (inactive) and the GI50 [58] was > 100 µM (inactive). The GI50 [49] was 22.1 µM (inactive).
